Experimental data reported in PubChem BioAssay (NCI).
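Values below derive from 48-hour exposures of cells grown in 96-well plates, with endpoints linearly interpolated between the two concentrations bracketing the appropriate inhibition level. GI50 is the concentration that inhibits growth by half. TGI is the concentration that stops growth completely.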

Assays:
Experiment in all cases: NCI anticancer screen, dose series, 48 h
[1] = system: HCT-15 colon
[2] = system: HOP-92 NSCLC
[3] = system: NCI-H522 lung
[4] = system: SF-268 CNS
[5] = system: KM12 colon
[6] = system: MOLT-4 leukemia
[7] = system: BT-549 breast
[8] = system: TK-10 renal
[9] = system: HOP-62 NSCLC
[10] = system: U251 CNS
[11] = system: SN12C renal
[12] = system: UACC-62 melanoma
[13] = system: K-562 leukemia
[14] = system: SNB-19 CNS
[15] = system: M14 melanoma
[16] = system: EKVX NSCLC
[17] = system: HS 578T breast
[18] = system: CCRF-CEM leukemia
[19] = system: NCI/ADR-RES ovarian
[20] = system: SW-620 colon
[21] = system: RXF 393 renal
[22] = system: 786-0 renal
[23] = system: RPMI-8226 leukemia
[24] = system: CAKI-1 renal
[25] = system: MDA-MB-231 breast
[26] = system: OVCAR-5 ovarian
[27] = system: SK-OV-3 ovarian
[28] = system: HL-60(TB) leukemia
[29] = system: NCI-H23 lung
[30] = system: COLO 205 colon
[31] = system: MALME-3M melanoma
[32] = system: DU-145 prostate
[33] = system: HCT-116 colon
[34] = system: NCI-H460 lung
[35] = system: MDA-MB-435
[36] = system: SR leukemia
[37] = system: UACC-257 melanoma
[38] = system: OVCAR-8 ovarian
[39] = system: NCI-H226 lung
[40] = system: SNB-75 CNS
[41] = system: UO-31 renal
[42] = system: SF-539 CNS
[43] = system: SK-MEL-2 melanoma
[44] = system: A498 renal
[45] = system: HT29 colon
[46] = system: SF-295 CNS
[47] = system: IGROV1 ovarian
[48] = system: MCF7 breast
[49] = system: SK-MEL-28 melanoma
[50] = system: LOX IMVI melanoma
[51] = system: A549 NSCLC
[52] = system: ACHN renal
[53] = system: OVCAR-4 ovarian
[54] = system: HCC-2998 colon
[55] = system: SK-MEL-5 melanoma
[56] = system: PC-3 prostate

In the case of `CCN1C(=O)N(CC)C2SC(N/N=C/C=C/c3ccccc3OC)=NC21` (stereo unspecified), the GI50 [1] is reported as 428 nM, the TGI [1] is reported as greater than 100000 nM and the GI50 [2] is reported as 266 nM. It also gave a TGI [2] of 4300 nM, a GI50 [3] of 236 nM and a TGI [3] of 703 nM. For the same compound, the GI50 [4] was 2510 nM, the TGI [4] was greater than 100000 nM and the GI50 [5] was 431 nM. It also gave a TGI [5] greater than 46300 nM, a GI50 [6] of 652 nM and a TGI [6] greater than 100000 nM. It also gave a GI50 [7] of 353 nM, a TGI [7] of 1410 nM and a GI50 [8] of 19400 nM. The TGI [8] was greater than 96600 nM, the GI50 [9] was 535 nM and the TGI [9] was greater than 100000 nM. The GI50 [10] was 400 nM, the TGI [10] was 16900 nM and the GI50 [11] was 991 nM. It also gave a TGI [11] greater than 76600 nM, a GI50 [12] of 405 nM and a TGI [12] greater than 100000 nM. For the same compound, the GI50 [13] was 400 nM, the TGI [13] was greater than 100000 nM and the GI50 [14] was 538 nM. For the same compound, the TGI [14] was greater than 100000 nM, the GI50 [15] was 313 nM and the TGI [15] was 3230 nM. It also gave a GI50 [16] of 1120 nM, a TGI [16] greater than 100000 nM and a GI50 [17] of 321 nM. It also gave a TGI [17] greater than 100000 nM, a GI50 [18] of 386 nM and a TGI [18] greater than 100000 nM. The GI50 [19] was 495 nM, the TGI [19] was greater than 100000 nM and the GI50 [20] was 383 nM. It also gave a TGI [20] greater than 100000 nM, a GI50 [21] of 350 nM and a TGI [21] of 8900 nM. The GI50 [22] was 758 nM, the TGI [22] was 18900 nM and the GI50 [23] was 398 nM. It also gave a TGI [23] of 18200 nM, a GI50 [24] of 567 nM and a TGI [24] greater than 100000 nM. The GI50 [25] was 1500 nM, the TGI [25] was 38600 nM and the GI50 [26] was 1300 nM. For the same compound, the TGI [26] was greater than 100000 nM, the GI50 [27] was 528 nM and the TGI [27] was greater than 100000 nM. For the same compound, the GI50 [28] was 299 nM, the GI50 [29] was 614 nM and the TGI [29] was greater than 100000 nM. The GI50 [30] was 308 nM, the TGI [30] was 951 nM and the GI50 [31] was 504 nM. For the same compound, the TGI [31] was greater than 100000 nM, the GI50 [32] was 704 nM and the TGI [32] was greater than 100000 nM. It also gave a GI50 [33] of 419 nM, a TGI [33] greater than 100000 nM and a GI50 [34] of 379 nM. It also gave a TGI [34] of 13100 nM, a GI50 [35] of 224 nM and a TGI [35] of 560 nM. The GI50 [36] was 351 nM, the TGI [36] was greater than 100000 nM and the GI50 [37] was 838 nM. It also gave a TGI [37] greater than 100000 nM, a GI50 [38] of 588 nM and a TGI [38] of 7140 nM. It also gave a GI50 [39] of 562 nM, a TGI [39] greater than 100000 nM and a GI50 [40] of 265 nM. The TGI [40] was greater than 100000 nM, the GI50 [41] was 730 nM and the TGI [41] was greater than 100000 nM. It also gave a GI50 [42] of 305 nM, a TGI [42] of 2940 nM and a GI50 [43] of 672 nM. For the same compound, the TGI [43] was 18100 nM, the GI50 [44] was 188 nM and the TGI [44] was 636 nM. It also gave a GI50 [45] of 346 nM, a TGI [45] of 3820 nM and a GI50 [46] of 371 nM. For the same compound, the TGI [46] was greater than 55100 nM, the GI50 [47] was 668 nM and the TGI [47] was greater than 100000 nM. The GI50 [48] was 427 nM, the TGI [48] was greater than 100000 nM and the GI50 [49] was 1510 nM. For the same compound, the TGI [49] was greater than 100000 nM, the GI50 [50] was 569 nM and the TGI [50] was 26900 nM. The GI50 [51] was 750 nM, the TGI [51] was greater than 100000 nM and the GI50 [52] was 744 nM. For the same compound, the TGI [52] was greater than 100000 nM, the GI50 [53] was 20300 nM and the TGI [53] was greater than 100000 nM. The GI50 [54] was 853 nM, the TGI [54] was 13600 nM and the GI50 [55] was 525 nM. The TGI [55] was 9170 nM, the GI50 [56] was 474 nM and the TGI [56] was greater than 72500 nM.
